Results taken from patent publication US8691764B2, “Inhibitors of NF-κB activity” (The Research Foundation for the State University of New York, priority 2007, dated 2014).

Key:
[1] = system: survivin, Bcl-2, c-IAP-1, c-IAP-2, and TRAF-1; assay: Western blot of NF-κB-dependent anti-apoptotic gene products in BxPC-3 cells; type: cell-based, human; conditions: at 8 h
Experimental: For Western blotting, the proteins from both cytoplasmic extracts and nuclear extracts were separated by SDS-polyacrylamide gel electrophoresis and transferred onto PVDF membranes (Millipore). The membranes were blocked in 5% nonfat dry milk-TBS-T (20 mM Tris-HCl, pH 7.5, 500 mM NaCl. 0.3% Tween 20) at room temperature (RT) for an hour and probed with anti-annexin 1, c-IAP-1, c-IAP-2, and TRAF-1 (Santa Cruz Biotechnology, Inc. CA), and anti-Bcl-2 antibodies (Cell Signaling Technology), in 5% nonfat dry milk-TBS-T at 4° C. overnight. The blots were washed three times with TBS-T for 5 min each wash and incubated with horseradish peroxidase-conjugated secondary antibody (Santa Cruz) in 5% nonfat dry milk-TBS-T at RT for an hour. After five washes with TBS-T, the blots were developed with the enhanced chemiluminescence system (ECL™ Western Blotting System, Amersham Biosciences) and exposed to x-ray film according to the manufacturer's instructions. Protein loading was normalized using anti-β-actin antibodies (Santa Cruz Biotechnology, Inc).

NF-κB p65 [2] = assay: Co-immunoprecipitation of annexin 1 with p65, BxPC-3 cells; type: cell-based, human; conditions: 3 h, NO-ASA 20 μM or Dex 4 μM
Experimental: (§1) The gel shift assays were carried out according to the manufacturer's protocol (Panomics). Nuclear proteins (10 μg) from each sample were mixed with 10 ng biotinylated p65 double-stranded oligonucleotide probes (5′-[…]-3′ and its complement) (SEQ ID NO:9) in the presence of 1 μg Poly(I/C) DNA. The mixture was incubated at room temperature for 30 min. The binding complex was then resolved using a 6% polyacrylamide/glycerol gel in 0.5% Tris-borate-EDTA, transferred onto a nylon membrane, and fixed on the membrane by UV cross-linking The biotin-labeled probe was detected with streptavidin-horseradish peroxidase. Co-immunoprecipitation was performed as follows: about 500 μg of cell extracts were incubated overnight with 5 μg of agarose-conjugated anti-p65 (Santa Cruz Biotechnology) or anti-annexin 1 antibody (Santa Cruz, Calif.). The precipitate was washed five times with washing buffer (Santa Cruz Biotechnology), dissolved in 2× Laemmli buffer, boiled, and separated by SDS-PAGE and detected by Western blot analysis using ECL™ (Amersham Biosciences) as described above. Control experiments were performed by using rabbit IgG for p65 and mouse IgG2b for annexin 1, respectively (Santa Cruz Biotechnology).

NF-κB p65 [3] = assay: Co-immunoprecipitation of annexin 1 with p65, HT-29 cells; type: cell-based, human; conditions: 3 h, NO-ASA 20 μM or Dex 4 μM
Experimental: as §1

NF-κB p65 [4] = assay: Co-localization of annexin 1 and p65 in intestinal epithelial cells of treated mice; type: in vivo; conditions: NO-ASA 100 mg/kg, 7 days
Experimental: (§2) A mouse model of multiple intestinal neoplasia, the Min mice, and the congenic parent wild-type mice were used to test the in vivo action of NO-ASA in the induction of annexin 1. Both wild-type and Min mice were treated for 7 days with vehicle or NO-ASA 100 mg/kg. After 7 days of treatment, the mice were sacrificed and the epithelial cells were evaluated as in Example 6 by confocal microscopy.

HT-29 cells = assay: Apoptosis, Cell Death Detection ELISA, HT-29 cells; type: cell-based, human
Experimental: Apoptosis was determined using the Cell Death Detection ELISA^PLUS assay kit according to the manufacturer's protocol (Roche, Indianapolis, Ind.). Briefly, the cells were treated with either NO-ASA or Dex for 3 h. Cells were harvested and washed three times with PBS. The cell pellet was resuspended with lysis buffer and incubated for 30 min at RT. Cell […] at 200×g for 10 min. The ELISA assay was performed using 20 μl cell lysate and 80 μl Immunoreagent (containing 72 μl Incubation Buffer, 4 μl Anti-histone-biotin Solution, and 4 μl Anti-DNA-POD Solution) per micro-plate well. The micro-plate was covered with an adhesive foil and incubated on a shaker under gentle shaking at 200 rpm for 2 h at RT. The solution in each well was removed thoroughly by tapping and the pellets were rinsed three times with 200 μl Incubation Buffer. […] The absorbance was measured at 405 nm using the SpectraMax micro-plate reader (Molecular Devices, Sunnyvale).
Briefly, annexin 1 cDNA clones (OreGen) or the PCMV6XL5 vector, as a negative control, were transiently transfected into BxPC-3 cells grown to 40-60% confluency using Lipofectamine according to the product protocol (Invitrogen). […] NF-κB activity was subsequently measured by the TransBinding NF-κB Assay Kit and ELISA as described in Example 2. […]

NF-κB = NF-κB activity in treated Min and wild-type mice; type: in vivo; conditions: NO-ASA 100 mg/kg or Dex 10 mg/kg daily for 7 days
Experimental: To assess whether these changes occur in vivo, the inventors studied isolated small intestine epithelial cells from Min mice and the corresponding wild type mice C57BL/6J (of which the Min mice are a congenic derivative) treated with NO-ASA 100 mg/kg or Dex 10 mg/kg daily for 7 days. Min (multiple intestinal neoplasia), a mutant allele of the murine APC (adenomatous polyposis coli) locus, encodes a nonsense mutation at codon 850. Heterozygous Min mutants spontaneously develop tumors in the intestine and represent a model of intestinal carcinogenesis (M. Lipkin et al., Ann. N.Y. Acad. Sci. 889:14-19 (1999); A. Moser, H. Pitot, W. Dove, Science 247:322-324 (1990)). The levels of annexin 1 were increased in both Min and wild-type mice treated with either NO-ASA or Dex (FIG. 7A and FIG. 8A). The induction of annexin 1 by NO-ASA or Dex was accompanied by the inhibition of NF-κB activity (FIGS. 7B and 8B).
as §2

How did the “expression of NF-κB-dependent anti-apoptotic genes survivin, Bcl-2, c-IAP-1, c-IAP-2, TRAF-1” value [1] turn out when nitric oxide-donating aspirin [NO-ASA] was run?
The value was “suppressed the expression”.

What about the “co-immunoprecipitation of annexin 1 with p65” value (NF-κB p65 [2]) of the same substance?
Its value is “co-immunoprecipitated with p65”.

And the “co-immunoprecipitation of annexin 1 with p65” value (NF-κB p65 [3])?
The value was “co-immunoprecipitated with p65”.

And the “colocalization of annexin 1 and p65 in intestinal cells” value (NF-κB p65 [4]; Min mice)?
The value was “greatly enhanced”.

And the “colocalization of annexin 1 and p65 in intestinal cells” value (NF-κB p65 [4]; wild type mice)?
Its value is “modest but significant colocalization”.

And the “induced cell apoptosis after knock-down of annexin 1 by specific siRNA” value (HT-29 cells; HT-29 cells (FIG. 3D))?
Its value is “completely abrogated”.

And the cell apoptosis (HT-29 cells; HT-29 cells, 3 h)?
Its cell apoptosis is “induced”.

What about the NF-κB activity (NF-κB; Min mice) of the same substance?
Its NF-κB activity is “inhibited NF-κB activity”.

And the NF-κB activity (NF-κB; wild-type mice)?
The NF-κB activity was “inhibited NF-κB activity”.
